In ChEMBL document CHEMBL3525932, “Comparison of metabolism of sesamin and episesamin by drug-metabolizing enzymes in human liver” (Drug Metab Dispos, 2012):

How the values were obtained:
CYP2C9 [1] = target: T1, CYP2C9 (Homo sapiens, UniProt P11712); experiment: Ratio of Kinact to Ki(app) for mechanism-based inhibition of recombinant human CYP2C9 expressed in microsomes isolated from Saccharomyces cerevisiae AH22 cells assessed as diclofenac 4'-hydroxylation preincubated for 5 to 10 mins followed by substrate addition measured after 15 mins by HPLC analysis; type: ADME, cell-based; conditions: probe diclofenac (4'-hydroxylation)
Liver microsome [2] = experiment: Drug metabolism in human liver microsomes assessed as (R)-episesamin monocatechol formation at 2 to 75 uM after 15 mins by HPLC analysis in presence of NADPH; type: ADME; conditions: 0.25 h
Liver microsome [3] = experiment: Drug metabolism in human liver microsomes assessed as (S)-episesamin monocatechol formation at 5 uM after 30 mins by HPLC analysis in presence of NADPH; type: ADME; conditions: 0.5 h
Cytochrome P450 2C9 [4] = target: T2, Cytochrome P450 2C9 (Homo sapiens, UniProt P11712); experiment: (§1) Mechanism-based inhibition of recombinant human CYP2C9 expressed in microsomes isolated from Saccharomyces cerevisiae AH22 cells assessed as diclofenac 4'-hydroxylation preincubated for 5 to 10 mins followed by substrate addition measured after 15 mins by HPLC analysis; type: ADME, cell-based
CYP2C9 [5] = target: T1, CYP2C9; experiment: as §1; type: ADME, cell-based; conditions: human, probe diclofenac (4'-hydroxylation)
Cytochrome P450 2C9 [6] = target: T2, Cytochrome P450 2C9; experiment: Activity of recombinant human CYP2C9 expressed in Saccharomyces cerevisiae AH22 cells assessed as enzyme-mediated (S)-episesamin monocatechol formation at 2 to 75 uM after 15 mins by HPLC analysis in presence of NADPH; type: ADME, cell-based; conditions: ah22, 0.25 h
Liver microsome [7] = experiment: Drug metabolism in human liver microsomes assessed as (R)-episesamin monocatechol formation at 5 uM after 30 mins by HPLC analysis in presence of NADPH; type: ADME; conditions: 0.5 h
Cytochrome P450 2C19 [8] = target: T3, Cytochrome P450 2C19 (Homo sapiens, UniProt P33261); experiment: Activity of recombinant human CYP2C19 expressed in Saccharomyces cerevisiae AH22 cells assessed as enzyme-mediated (R)-episesamin monocatechol formation at 2 to 75 uM after 15 mins by HPLC analysis in presence of NADPH; type: ADME, cell-based; conditions: ah22, 0.25 h
Cytochrome P450 1A2 [9] = target: T4, Cytochrome P450 1A2 (Homo sapiens, UniProt P05177); experiment: Activity of recombinant human CYP1A2 expressed in Saccharomyces cerevisiae AH22 cells assessed as enzyme-mediated (R)-episesamin monocatechol formation at 2 to 75 uM after 15 mins by HPLC analysis in presence of NADPH; type: ADME, cell-based; conditions: ah22, 0.25 h
T4 sequence (P05177 whole entry): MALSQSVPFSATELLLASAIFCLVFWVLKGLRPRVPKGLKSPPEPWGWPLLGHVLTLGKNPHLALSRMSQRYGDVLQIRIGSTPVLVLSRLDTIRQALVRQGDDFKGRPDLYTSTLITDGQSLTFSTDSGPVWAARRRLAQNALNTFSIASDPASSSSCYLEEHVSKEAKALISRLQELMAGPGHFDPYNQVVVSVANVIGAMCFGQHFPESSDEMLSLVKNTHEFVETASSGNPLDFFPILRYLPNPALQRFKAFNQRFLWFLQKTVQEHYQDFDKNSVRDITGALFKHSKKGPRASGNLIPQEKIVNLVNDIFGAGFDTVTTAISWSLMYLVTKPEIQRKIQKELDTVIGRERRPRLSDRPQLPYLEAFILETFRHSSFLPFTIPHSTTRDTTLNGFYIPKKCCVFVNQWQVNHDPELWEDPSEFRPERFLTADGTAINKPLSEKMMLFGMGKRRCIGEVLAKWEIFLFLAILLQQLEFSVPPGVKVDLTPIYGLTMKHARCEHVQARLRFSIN

Liver microsome [10] = experiment: Drug metabolism in human liver microsomes assessed as (S)-episesamin monocatechol formation at 2 to 75 uM after 15 mins by HPLC analysis in presence of NADPH; type: ADME; conditions: 0.25 h
Cytochrome P450 2C19 [11] = target: T3, Cytochrome P450 2C19; experiment: Activity of recombinant human CYP2C19 expressed in Saccharomyces cerevisiae AH22 cells assessed as enzyme-mediated (S)-episesamin monocatechol formation at 2 to 75 uM after 15 mins by HPLC analysis in presence of NADPH; type: ADME, cell-based; conditions: ah22, 0.25 h
Liver microsome [12] = experiment: Drug metabolism in human liver microsomes assessed as (R)-episesamin monocatechol formation at 5 uM after 15 mins by HPLC analysis in presence of NADPH and anti-CYP1A2 antibody; type: ADME; conditions: 0.25 h
Cytochrome P450 2C19 [13] = target: T3, Cytochrome P450 2C19; experiment: Activity of recombinant human CYP2C19 expressed in Saccharomyces cerevisiae AH22 cells assessed as enzyme-mediated episesamin dicatechol formation at 2 to 75 uM after 15 mins by HPLC analysis in presence of NADPH; type: ADME, cell-based; conditions: ah22, 0.25 h
Cytochrome P450 1A2 [14] = target: T4, Cytochrome P450 1A2; experiment: Activity of recombinant human CYP1A2 expressed in Saccharomyces cerevisiae AH22 cells assessed as enzyme-mediated episesamin dicatechol formation at 2 to 75 uM after 15 mins by HPLC analysis in presence of NADPH; type: ADME, cell-based; conditions: ah22, 0.25 h
Liver microsome [15] = experiment: Drug metabolism in human liver microsomes assessed as (S)-episesamin monocatechol formation at 5 uM after 15 mins by HPLC analysis in presence of NADPH and anti-CYP1A2 antibody; type: ADME; conditions: 0.25 h
Liver microsome [16] = experiment: Drug metabolism in heat-inactivated human liver microsomes assessed as episesamin dicatechol formation at 2 to 75 uM after 15 mins by HPLC analysis in presence of NADPH; type: ADME; conditions: 0.25 h
Cytochrome P450 3A4 = Cytochrome P450 3A4 (Homo sapiens, UniProt P08684); experiment: Activity of recombinant human CYP3A4 expressed in Saccharomyces cerevisiae AH22 cells assessed as enzyme-mediated catecholization at 2 to 75 uM after 15 mins by HPLC analysis in presence of NADPH; type: ADME, cell-based; conditions: ah22, 0.25 h
Cytochrome P450 2D6 = Cytochrome P450 2D6 (Homo sapiens, UniProt P10635); experiment: Activity of recombinant human CYP2D6 expressed in Saccharomyces cerevisiae AH22 cells assessed as enzyme-mediated catecholization at 2 to 75 uM after 15 mins by HPLC analysis in presence of NADPH; type: ADME, cell-based; conditions: ah22, 0.25 h
Cytochrome P450 2C9 [17] = target: T2, Cytochrome P450 2C9; experiment: Activity of recombinant human CYP2C9 expressed in Saccharomyces cerevisiae AH22 cells assessed as enzyme-mediated episesamin dicatechol formation at 2 to 75 uM after 15 mins by HPLC analysis in presence of NADPH; type: ADME, cell-based; conditions: ah22, 0.25 h
Cytochrome P450 2E1 = Cytochrome P450 2E1 (Homo sapiens, UniProt P05181); experiment: Activity of recombinant human CYP2E1 expressed in Saccharomyces cerevisiae AH22 cells assessed as enzyme-mediated catecholization at 2 to 75 uM after 15 mins by HPLC analysis in presence of NADPH; type: ADME, cell-based; conditions: ah22, 0.25 h
Cytochrome P450 2C9 [18] = target: T2, Cytochrome P450 2C9; experiment: Mechanism-based inhibition of recombinant human CYP2C9 expressed in microsomes isolated from Saccharomyces cerevisiae AH22 cells assessed as diclofenac 4'-hydroxylation up to 50 uM preincubated for 5 to 10 mins followed by substrate addition measured by HPLC analysis; type: ADME, cell-based
CYP450 [19] = experiment: Drug metabolism in human liver microsomes assessed as CYP450-mediated catecholization after 10 to 30 mins by HPLC analysis in presence of NADPH; type: ADME
Cytochrome P450 2C9 [20] = target: T2, Cytochrome P450 2C9; experiment: Activity of recombinant human CYP2C9 expressed in Saccharomyces cerevisiae AH22 cells assessed as enzyme-mediated (R)-episesamin monocatechol formation at 2 to 75 uM after 15 mins by HPLC analysis in presence of NADPH; type: ADME, cell-based; conditions: ah22, 0.25 h
CYP450 [21] = experiment: Drug metabolism in Sprague-Dawley rat liver microsomes assessed as CYP450-mediated catecholization after 10 to 30 mins by HPLC analysis in presence of NADPH; type: ADME
Liver microsome [22] = experiment: Drug metabolism in human liver microsomes assessed as episesamin monocatecholization at 5 uM after 15 mins by HPLC analysis in presence of NADPH and CYP2C19 inhibitor (+)-N-3-benzylnirvanol; type: ADME; conditions: 0.25 h
Liver microsome [23] = experiment: Drug metabolism in human liver microsomes assessed as episesamin dicatechol formation at 2 to 75 uM after 15 mins by HPLC analysis in presence of NADPH; type: ADME; conditions: 0.25 h
[24] = Drug metabolism in human liver microsomes assessed as CYP450-mediated catecholization per mg of protein after 10 to 30 mins by HPLC analysis in presence of NADPH; type: ADME
Liver microsome [25] = experiment: Drug metabolism in human liver microsomes assessed as (R)-episesamin monocatechol formation at 5 uM after 15 mins by HPLC analysis in presence of NADPH and anti-CYP2C9 antibody; type: ADME; conditions: 0.25 h
Liver microsome [26] = experiment: Drug metabolism in human liver microsomes assessed as (S)-episesamin monocatechol formation at 5 uM after 15 mins by HPLC analysis in presence of NADPH and anti-CYP2C9 antibody; type: ADME; conditions: 0.25 h
Liver microsome [27] = experiment: Drug metabolism in human liver microsomes assessed as episesamin monocatecholization at 5 uM after 15 mins by HPLC analysis in presence of NADPH and CYP2C9 inhibitor sulfaphenazole; type: ADME; conditions: 0.25 h
[28] = Drug metabolism in Sprague-Dawley rat liver microsomes assessed as CYP450-mediated catecholization per mg of protein after 10 to 30 mins by HPLC analysis in presence of NADPH; type: ADME
Cytochrome P450 2C19 [29] = target: T3, Cytochrome P450 2C19; experiment: Activity of recombinant human CYP2C19 expressed in Saccharomyces cerevisiae AH22 cells assessed as enzyme-mediated sesamin dicatechol/monocatechol formation at 2 to 20 uM after 15 mins by HPLC analysis in presence of NADPH; type: ADME, cell-based; conditions: ah22, 0.25 h
Liver microsome [30] = experiment: Drug metabolism in human liver microsomes assessed as sesamin monocatechol formation after 30 mins by HPLC analysis in presence of NADPH; type: ADME; conditions: 0.5 h

T1 sequence (P11712 whole entry): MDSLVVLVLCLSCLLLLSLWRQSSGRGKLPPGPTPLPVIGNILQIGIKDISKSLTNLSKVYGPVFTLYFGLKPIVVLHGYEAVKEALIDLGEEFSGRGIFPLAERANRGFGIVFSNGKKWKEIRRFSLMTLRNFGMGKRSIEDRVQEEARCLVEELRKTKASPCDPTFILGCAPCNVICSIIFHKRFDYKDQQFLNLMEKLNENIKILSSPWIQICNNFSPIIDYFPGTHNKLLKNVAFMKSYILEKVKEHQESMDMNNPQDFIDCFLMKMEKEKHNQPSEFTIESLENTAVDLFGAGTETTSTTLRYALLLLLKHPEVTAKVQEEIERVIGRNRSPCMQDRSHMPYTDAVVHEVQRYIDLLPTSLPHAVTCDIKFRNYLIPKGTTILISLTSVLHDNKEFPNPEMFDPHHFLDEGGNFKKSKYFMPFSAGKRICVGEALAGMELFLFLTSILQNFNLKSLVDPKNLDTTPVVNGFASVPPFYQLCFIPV
T2 sequence (P11712 whole entry): as above
T3 sequence (P33261 whole entry): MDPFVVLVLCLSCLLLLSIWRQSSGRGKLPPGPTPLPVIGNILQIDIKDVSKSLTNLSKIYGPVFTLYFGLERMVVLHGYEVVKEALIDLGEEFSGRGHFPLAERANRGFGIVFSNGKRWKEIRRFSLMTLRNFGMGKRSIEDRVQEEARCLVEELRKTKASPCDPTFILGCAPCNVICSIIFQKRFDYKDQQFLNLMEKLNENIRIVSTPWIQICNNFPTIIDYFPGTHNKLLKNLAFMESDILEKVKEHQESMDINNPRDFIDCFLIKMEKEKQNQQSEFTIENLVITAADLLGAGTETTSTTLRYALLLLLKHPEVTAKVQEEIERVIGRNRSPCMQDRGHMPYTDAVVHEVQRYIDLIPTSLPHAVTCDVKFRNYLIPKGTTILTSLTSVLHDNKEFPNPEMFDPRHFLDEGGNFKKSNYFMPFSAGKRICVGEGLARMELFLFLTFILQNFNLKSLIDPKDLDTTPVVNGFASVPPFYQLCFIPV
Sequence of Cytochrome P450 2E1 (P05181 whole entry): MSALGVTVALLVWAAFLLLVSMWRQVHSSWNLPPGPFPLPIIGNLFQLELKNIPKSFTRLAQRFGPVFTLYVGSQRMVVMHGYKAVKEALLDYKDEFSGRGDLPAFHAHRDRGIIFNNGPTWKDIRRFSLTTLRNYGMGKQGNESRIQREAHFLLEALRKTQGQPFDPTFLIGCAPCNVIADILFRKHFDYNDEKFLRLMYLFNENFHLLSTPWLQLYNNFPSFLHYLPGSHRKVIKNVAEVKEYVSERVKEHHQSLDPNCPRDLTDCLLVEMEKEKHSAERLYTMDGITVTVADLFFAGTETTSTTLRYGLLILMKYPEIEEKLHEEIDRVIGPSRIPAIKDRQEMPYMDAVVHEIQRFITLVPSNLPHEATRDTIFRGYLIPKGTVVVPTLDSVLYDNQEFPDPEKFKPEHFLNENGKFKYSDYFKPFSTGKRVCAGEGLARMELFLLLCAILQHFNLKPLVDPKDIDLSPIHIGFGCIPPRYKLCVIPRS
Sequence of Cytochrome P450 3A4 (P08684 whole entry): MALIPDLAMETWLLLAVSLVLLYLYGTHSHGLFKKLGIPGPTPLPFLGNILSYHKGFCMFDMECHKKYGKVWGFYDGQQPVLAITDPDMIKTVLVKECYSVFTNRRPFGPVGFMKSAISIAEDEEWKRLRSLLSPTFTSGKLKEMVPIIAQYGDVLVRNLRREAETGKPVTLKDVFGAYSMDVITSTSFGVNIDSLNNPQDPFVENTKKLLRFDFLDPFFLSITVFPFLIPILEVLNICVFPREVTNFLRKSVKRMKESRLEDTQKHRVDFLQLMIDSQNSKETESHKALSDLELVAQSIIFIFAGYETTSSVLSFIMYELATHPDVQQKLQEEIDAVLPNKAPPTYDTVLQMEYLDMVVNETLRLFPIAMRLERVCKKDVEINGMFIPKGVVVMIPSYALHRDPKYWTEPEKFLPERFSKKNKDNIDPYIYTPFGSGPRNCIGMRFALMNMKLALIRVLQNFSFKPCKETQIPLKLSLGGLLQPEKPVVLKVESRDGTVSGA
Sequence of Cytochrome P450 2D6 (P10635 whole entry): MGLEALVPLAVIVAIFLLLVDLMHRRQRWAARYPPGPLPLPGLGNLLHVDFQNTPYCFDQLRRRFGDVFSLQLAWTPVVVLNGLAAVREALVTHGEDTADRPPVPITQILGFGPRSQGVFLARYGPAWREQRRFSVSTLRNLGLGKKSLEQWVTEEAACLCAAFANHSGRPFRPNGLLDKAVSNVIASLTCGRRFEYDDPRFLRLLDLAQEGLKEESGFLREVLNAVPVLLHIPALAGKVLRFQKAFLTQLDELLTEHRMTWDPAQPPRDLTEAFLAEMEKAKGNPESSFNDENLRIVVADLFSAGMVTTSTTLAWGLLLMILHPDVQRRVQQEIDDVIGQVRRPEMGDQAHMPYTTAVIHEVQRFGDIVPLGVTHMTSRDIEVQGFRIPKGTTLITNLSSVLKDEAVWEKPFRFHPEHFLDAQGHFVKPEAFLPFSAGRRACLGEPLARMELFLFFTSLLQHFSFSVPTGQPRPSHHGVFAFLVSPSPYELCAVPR

In the case of `c1cc2c(cc1[C@H]1OC[C@H]3[C@@H]1CO[C@H]3c1ccc3c(c1)OCO3)OCO2` [ASARININ], the kinact/KI at 0.25 h (CYP2C9 [1]) is reported as 417 M⁻¹ s⁻¹, the Drug metabolism (Liver microsome [2]) is reported as “metabolite_detected” and the Drug metabolism (Liver microsome [3]) is reported as “metabolite_detected”. For the same molecule, the “inhibition (INH)” value (Cytochrome P450 2C9 [4]; human, microsomes, 0.25 h) was “Dose-dependent effect”, the Ki (Cytochrome P450 2C9 [4]; read-out: Ki(app)) was 6.8 µM and the kinact at 0.25 h (CYP2C9 [5]) was 0.00283 s⁻¹. The Drug metabolism (Cytochrome P450 2C9 [6]) was “metabolite_detected”, the Drug metabolism (Liver microsome [7]) was “metabolite_detected” and the Drug metabolism (Cytochrome P450 2C19 [8]) was “metabolite_detected”. The Drug metabolism (Cytochrome P450 1A2 [9]) was “metabolite_detected”, the Drug metabolism (Liver microsome [10]) was “metabolite_detected” and the Drug metabolism (Cytochrome P450 2C19 [11]) was “metabolite_detected”. For the same molecule, the Drug metabolism (Liver microsome [12]) was “metabolite_not_detected”, the Drug metabolism (Cytochrome P450 2C19 [13]) was “metabolite_detected” and the Drug metabolism (Cytochrome P450 1A2 [14]) was “metabolite_not_detected”. The Drug metabolism (Liver microsome [15]) was “metabolite_detected”, the Drug metabolism (Liver microsome [16]) was “metabolite_not_detected” and the Drug metabolism (Cytochrome P450 3A4) was “metabolite_not_detected”. The Drug metabolism (Cytochrome P450 2D6) was “metabolite_not_detected”, the Drug metabolism (Cytochrome P450 2C9 [17]) was “metabolite_not_detected” and the Drug metabolism (Cytochrome P450 2E1) was “metabolite_not_detected”. For the same molecule, the “inhibition (INH)” value (Cytochrome P450 2C9 [18]) was “Dose-dependent effect”, the Km (CYP450 [19]) was 13 µM and the Drug metabolism (Cytochrome P450 2C9 [20]) was “metabolite_detected”. The Km (CYP450 [21]) was 16 µM, the Drug metabolism (Liver microsome [22]) was “metabolite_detected” and the Drug metabolism (Liver microsome [23]) was “metabolite_detected”. The Vmax [24] was 0.4 nmol/min/mg, the Drug metabolism (Liver microsome [25]) was “metabolite_not_detected” and the Drug metabolism (Liver microsome [26]) was “metabolite_not_detected”. For the same molecule, the Drug metabolism (Liver microsome [27]) was “metabolite_not_detected” and the Vmax [28] was 6.3 nmol/min/mg.

With `c1cc2c(cc1[C@H]1OC[C@H]3[C@@H]1CO[C@@H]3c1ccc3c(c1)OCO3)OCO2` [SESAMIN] the kinact/KI at 0.25 h (CYP2C9 [1]) was 2330 M⁻¹ s⁻¹, the Drug metabolism (Cytochrome P450 2C19 [29]) was “metabolite_detected” and the Km (CYP450 [19]) was 7.7 µM. The Km (CYP450 [21]) was 7.1 µM, the Drug metabolism (Liver microsome [30]) was “metabolite_detected” and the Vmax [24] was 0.81 nmol/min/mg. It also gave a Vmax [28] of 4.8 nmol/min/mg.
